Our source for the IC50 values is patent US11566028B2, “Bicyclic heterocycles as FGFR inhibitors” (Incyte Corporation, priority 2019, dated 2023).

Read-outs that look alike come from different tables or passages of the source.

Format in all cases: biochemical
The target in experiment [1] is wild-type un-phosphorylated FGFR3 protein (Homo sapiens (Human), UniProt P22607). The experiment is described as follows: FGFR Enzymatic Assay (FRET peptide phosphorylation), FGFR3. The following applies: pre-incubated for 4 hours.
Sequence of wild-type un-phosphorylated FGFR3 protein (P22607 23-806): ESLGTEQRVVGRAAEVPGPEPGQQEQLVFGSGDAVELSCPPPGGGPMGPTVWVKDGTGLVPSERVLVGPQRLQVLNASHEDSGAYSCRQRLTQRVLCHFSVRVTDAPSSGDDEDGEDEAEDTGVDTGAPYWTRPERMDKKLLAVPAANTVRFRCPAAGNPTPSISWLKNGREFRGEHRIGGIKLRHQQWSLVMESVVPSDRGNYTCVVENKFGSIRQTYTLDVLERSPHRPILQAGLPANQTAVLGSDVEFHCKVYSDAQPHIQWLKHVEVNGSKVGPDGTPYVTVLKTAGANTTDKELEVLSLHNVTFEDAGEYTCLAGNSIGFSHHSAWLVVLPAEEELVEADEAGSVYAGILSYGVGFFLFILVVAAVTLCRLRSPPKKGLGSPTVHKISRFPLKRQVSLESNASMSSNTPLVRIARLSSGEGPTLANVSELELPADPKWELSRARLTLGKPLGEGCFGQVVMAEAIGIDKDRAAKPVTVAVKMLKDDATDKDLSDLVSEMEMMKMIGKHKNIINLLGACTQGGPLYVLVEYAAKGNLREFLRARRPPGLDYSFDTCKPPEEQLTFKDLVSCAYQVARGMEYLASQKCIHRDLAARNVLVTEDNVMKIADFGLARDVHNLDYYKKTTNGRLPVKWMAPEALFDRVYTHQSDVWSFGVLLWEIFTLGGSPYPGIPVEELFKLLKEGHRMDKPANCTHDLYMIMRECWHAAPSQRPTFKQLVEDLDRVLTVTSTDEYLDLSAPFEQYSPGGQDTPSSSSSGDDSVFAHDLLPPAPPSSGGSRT
A further experiment has as its target FGFR2 (Homo sapiens (Human), UniProt P21802). As to the kind of experiment: FGFR Enzymatic Assay (FRET peptide phosphorylation), FGFR2.
In another experiment the target is FGFR4 (Homo sapiens (Human), UniProt P22455). As to the kind of experiment: FGFR Enzymatic Assay (FRET peptide phosphorylation), FGFR4.
Sequence of FGFR4 (P22455 22-802): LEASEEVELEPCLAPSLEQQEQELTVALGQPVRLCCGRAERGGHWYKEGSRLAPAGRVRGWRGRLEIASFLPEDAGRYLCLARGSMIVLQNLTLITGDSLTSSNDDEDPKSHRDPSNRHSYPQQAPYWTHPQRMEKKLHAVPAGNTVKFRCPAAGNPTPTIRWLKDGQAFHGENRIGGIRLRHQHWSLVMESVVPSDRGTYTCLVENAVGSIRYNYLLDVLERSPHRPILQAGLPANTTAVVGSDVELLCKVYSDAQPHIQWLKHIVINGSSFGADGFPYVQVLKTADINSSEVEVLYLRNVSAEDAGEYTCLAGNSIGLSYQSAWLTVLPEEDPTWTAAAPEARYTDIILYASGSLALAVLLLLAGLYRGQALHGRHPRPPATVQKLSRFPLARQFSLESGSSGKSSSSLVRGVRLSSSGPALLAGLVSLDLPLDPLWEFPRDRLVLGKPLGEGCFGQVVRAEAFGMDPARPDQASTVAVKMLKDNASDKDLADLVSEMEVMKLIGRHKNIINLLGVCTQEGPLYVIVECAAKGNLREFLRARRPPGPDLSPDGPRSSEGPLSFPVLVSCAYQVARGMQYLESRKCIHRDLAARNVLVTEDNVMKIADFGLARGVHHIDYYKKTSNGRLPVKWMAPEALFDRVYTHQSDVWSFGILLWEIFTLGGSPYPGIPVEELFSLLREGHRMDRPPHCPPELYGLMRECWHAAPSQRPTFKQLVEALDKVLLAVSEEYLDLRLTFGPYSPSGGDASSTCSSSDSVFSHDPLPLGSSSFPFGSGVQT
Another experiment has as its target FGFR1 (Homo sapiens (Human), UniProt P11362). The experiment is described as follows: FGFR Enzymatic Assay (FRET peptide phosphorylation), FGFR1. The conditions noted are these: pre-incubated for 4 hours.

Sequence of FGFR1 (P11362 22-822): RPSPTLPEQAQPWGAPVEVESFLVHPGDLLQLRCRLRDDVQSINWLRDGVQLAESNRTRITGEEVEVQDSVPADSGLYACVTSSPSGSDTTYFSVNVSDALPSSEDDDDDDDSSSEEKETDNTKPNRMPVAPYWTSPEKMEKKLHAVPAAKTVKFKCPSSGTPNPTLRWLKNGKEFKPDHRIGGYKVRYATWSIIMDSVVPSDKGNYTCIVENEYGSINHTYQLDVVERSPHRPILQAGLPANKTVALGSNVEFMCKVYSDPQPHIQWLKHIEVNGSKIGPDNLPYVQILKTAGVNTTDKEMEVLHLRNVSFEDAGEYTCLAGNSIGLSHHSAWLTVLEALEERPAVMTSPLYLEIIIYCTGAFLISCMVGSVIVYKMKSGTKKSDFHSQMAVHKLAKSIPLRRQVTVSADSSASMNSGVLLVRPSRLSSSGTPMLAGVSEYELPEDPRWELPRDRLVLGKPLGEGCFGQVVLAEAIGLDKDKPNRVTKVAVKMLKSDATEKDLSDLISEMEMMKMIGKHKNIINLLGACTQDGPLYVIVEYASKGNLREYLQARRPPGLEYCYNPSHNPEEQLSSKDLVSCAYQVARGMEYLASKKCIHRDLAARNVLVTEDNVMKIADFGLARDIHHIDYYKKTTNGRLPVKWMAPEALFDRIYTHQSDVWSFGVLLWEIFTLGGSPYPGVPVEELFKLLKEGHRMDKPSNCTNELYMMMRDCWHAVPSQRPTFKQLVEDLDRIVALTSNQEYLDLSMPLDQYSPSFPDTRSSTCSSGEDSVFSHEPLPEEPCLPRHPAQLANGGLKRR
Sequence of FGFR2 (P21802 22-821): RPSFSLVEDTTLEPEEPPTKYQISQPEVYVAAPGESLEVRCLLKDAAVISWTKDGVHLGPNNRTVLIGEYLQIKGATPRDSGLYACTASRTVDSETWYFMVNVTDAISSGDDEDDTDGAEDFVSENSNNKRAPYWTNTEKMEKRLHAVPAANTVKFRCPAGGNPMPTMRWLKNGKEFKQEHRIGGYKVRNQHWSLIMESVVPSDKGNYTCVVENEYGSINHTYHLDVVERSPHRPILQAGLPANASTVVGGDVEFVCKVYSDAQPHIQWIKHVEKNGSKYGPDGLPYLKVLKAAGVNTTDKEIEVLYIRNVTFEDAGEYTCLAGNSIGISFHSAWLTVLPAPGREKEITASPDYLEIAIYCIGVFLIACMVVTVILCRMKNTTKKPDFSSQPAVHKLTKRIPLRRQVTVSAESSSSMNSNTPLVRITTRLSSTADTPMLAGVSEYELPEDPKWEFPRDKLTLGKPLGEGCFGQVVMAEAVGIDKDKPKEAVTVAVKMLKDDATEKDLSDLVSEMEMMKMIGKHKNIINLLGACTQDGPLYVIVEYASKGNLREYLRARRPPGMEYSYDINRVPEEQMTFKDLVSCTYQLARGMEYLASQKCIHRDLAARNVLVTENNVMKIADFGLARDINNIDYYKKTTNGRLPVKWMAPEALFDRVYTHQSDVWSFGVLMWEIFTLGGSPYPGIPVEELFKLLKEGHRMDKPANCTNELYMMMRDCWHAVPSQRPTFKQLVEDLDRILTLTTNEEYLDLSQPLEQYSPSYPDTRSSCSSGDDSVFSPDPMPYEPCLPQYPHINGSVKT

In general, IC50 refers to the midpoint of a concentration-inhibition curve. `CNC(=O)c1cncc(-c2cnn3cc(-c4cnn(C)n4)c(N[C@H]4CCOC4)nc23)c1` [Example 60, (S)—N-Methyl-5-(6-(2-methyl-2H-1,2,3-triazol-4-yl)-5-((tetrahydrofuran-3-yl)amino)pyrazolo[1,5-a]pyrimidin-3-yl)nicotinamide]: the IC50 in experiment [1] is below 0.01 µM; against FGFR2 (pre-incubated for 4 hours) it was below 0.01 µM; at FGFR4 (pre-incubated for 4 hours), at least 0.2 µM; against FGFR1, 0.03 to 0.2 µM.
Consider `[2H]C([2H])([2H])NC(=O)c1cncc(-c2cnn3cc(-c4cnn(C(C)C)c4)c(O[C@H]4CCOC4)nc23)c1` [Example 63, (S)-5-(6-(1-Isopropyl-1H-pyrazol-4-yl)-5-((tetrahydrofuran-3-yl)oxy)pyrazolo[1,5-a]pyrimidin-3-yl)-N-(methyl-d3)nicotinamide], for which the IC50 on FGFR4 (pre-incubated for 4 hours) fell in the range of 0.03 to 0.2 µM.
As for `CC(C)NC(=O)c1cncc(-c2cnn3cc(-c4ccn(C)n4)c(N[C@H]4CCOC4)nc23)c1` [Example 62, (S)—N-Isopropyl-5-(6-(1-methyl-1H-pyrazol-3-yl)-5-((tetrahydrofuran-3-yl)amino)pyrazolo[1,5-a]pyrimidin-3-yl)nicotinamide], the IC50 against FGFR2 (pre-incubated for 4 hours) is 0.01 to 0.03 µM; on FGFR4 (pre-incubated for 4 hours) it was at least 0.2 µM; against FGFR1, 0.03 to 0.2 µM.
With `CNC(=O)c1cc(C)c(F)c(-c2cnn3cc(-c4cnn([C@@H]5CCN(C)C[C@H]5F)c4)c(N[C@H]4CCOC4)nc23)c1` [Example 65, 4-Fluoro-3-(6-(1-((3R,4R)-3-fluoro-1-methylpiperidin-4-yl)-1H-pyrazol-4-yl)-5-(((S)-tetrahydrofuran-3-yl)amino)pyrazolo[1,5-a]pyrimidin-3-yl)-N,5-dimethylbenzamide], the IC50 in experiment [1] is below 0.01 µM; at FGFR2 (pre-incubated for 4 hours), below 0.01 µM; on FGFR4 (pre-incubated for 4 hours) it was 0.03 to 0.2 µM; at FGFR1, 0.01 to 0.03 µM.
Consider `CNC(=O)c1cc(F)c(F)c(-c2cnn3cc(-c4cnc(C)o4)c(N[C@H]4CCOC4)nc23)c1` [Example 58, (S)-3,4-Difluoro-N-methyl-5-(6-(2-methyloxazol-5-y1)-5-((tetrahydrofuran-3-yl)amino)pyrazolo[1,5-a]pyrimidin-3-yl)benzamide], for which the IC50 in experiment [1] was below 0.01 µM; at FGFR2 it was below 0.01 µM; against FGFR4, 0.03 to 0.2 µM; against FGFR1, below 0.01 µM.
`CCn1ccc(-c2cn3ncc(-c4cc(C(=O)NC)cc(C)c4F)c3nc2N[C@H]2CCOC2)n1` [Example 43, (S)-3-(6-(1-Ethy1-1H-pyrazol-3-y1)-5-((tetrahydrofuran-3-yl)amino)pyrazolo[1,5-a]pyrimidin-3-y1)-4-fluoro-N,5-dimethylbenzamide]: the IC50 is below 0.01 µM in experiment [1], below 0.01 µM at FGFR2, 0.03 to 0.2 µM against FGFR4 and 0.01 to 0.03 µM on FGFR1.
Regarding `[2H]C([2H])([2H])NC(=O)c1cc(C)c(F)c(-c2cnn3cc(-c4cnn([C@@H]5CCN(C)C[C@H]5F)c4)c(O[C@H]4CCOC4)nc23)c1` [Example 64, 4-Fluoro-3-(6-(1-((3R,4R)-3-fluoro-1-methylpiperidin-4-yl)-1H-pyrazol-4-yl)-5-(((S)-tetrahydrofuran-3-yl)oxy)pyrazolo[1,5-a]pyrimidin-3-yl)-5-methyl-N-(methyl-d3)benzamide], the IC50 in experiment [1] was below 0.01 µM; against FGFR2 (pre-incubated for 4 hours) it was below 0.01 µM; on FGFR4 (pre-incubated for 4 hours), 0.01 to 0.03 µM; on FGFR1, below 0.01 µM.
As for `CNC(=O)c1cc(C)c(F)c(-c2cnn3cc(-c4cnn(C5CCOC5)c4)c(N[C@H]4CCOC4)nc23)c1` (stereo partly drawn) [Example 41, 4-Fluoro-N,3-dimethyl-5-(6-(1-(tetrahydrofuran-3-yl)-1H-pyrazol-4-y1)-5-(((S)-tetrahydrofuran-3-yl)amino)pyrazolo[1,5-a]pyrimidin-3-yl)benzamide], the concentration for half-maximal inhibition (IC50) is below 0.01 µM in experiment [1], below 0.01 µM against FGFR2, 0.03 to 0.2 µM at FGFR4 and 0.03 to 0.2 µM against FGFR1.
Take `CNC(=O)c1cncc(-c2cnn3cc(-c4cnn(C)c4)c(OC4CCOC4)nc23)c1` (racemic) [Example 3, N-Methyl-5-(6-(1-methyl-1H-pyrazol-4-yl)-5-((tetrahydrofuran-3-yl)oxy)pyrazolo[1,5-a]pyrimidin-3-yl)nicotinamide]: the IC50 was below 0.01 µM at FGFR2 (pre-incubated for 4 hours), at least 0.2 µM against FGFR4 (pre-incubated for 4 hours) and 0.03 to 0.2 µM against FGFR1.
Turning to `CCNC(=O)c1cncc(-c2cnn3cc(-c4ccn(C)n4)c(N[C@H]4CCOC4)nc23)c1` [Example 61, (S)—N-Ethyl-5-(6-(1-methyl-1H-pyrazol-3-yl)-5-((tetrahydrofuran-3-yl)amino)pyrazolo[1,5-a]pyrimidin-3-yl)nicotinamide], the IC50 is below 0.01 µM in experiment [1], below 0.01 µM against FGFR2 (pre-incubated for 4 hours), 0.03 to 0.2 µM at FGFR4 (pre-incubated for 4 hours) and 0.03 to 0.2 µM at FGFR1.
As for `Cn1cc(-c2cn3ncc(-c4cccc5[nH]ncc45)c3nc2O[C@H]2CCOC2)cn1` [Example 33, (S)-3-(1H-Indazol-4-yl)-6-(1-methyl-1H-pyrazol-4-yl)-5-((tetrahydrofuran-3-yl)oxy)pyrazolo[1,5-a]pyrimidine], the IC50 in experiment [1] is below 0.01 µM; against FGFR2 (pre-incubated for 4 hours), below 0.01 µM; at FGFR4 (pre-incubated for 4 hours), 0.03 to 0.2 µM; against FGFR1 it was 0.01 to 0.03 µM.
Consider `CCS(=O)(=O)c1cc(F)c(F)c(-c2cnn3cc(-c4cnn(C)c4)c(N[C@H]4CCOC4)nc23)c1` [Example 45, (S)-3-(5-(Ethylsulfonyl)-2,3-difluorophenyl)-6-(1-methyl-1H-pyrazol-4-yl)-N-(tetrahydrofuran-3-yl)pyrazolo[1,5-a]pyrimidin-5-amine], for which the IC50 was at least 0.2 µM against FGFR4 (pre-incubated for 4 hours) and 0.01 to 0.03 µM against FGFR1.
Consider `CCn1cc(-c2cn3ncc(-c4cc(C(=O)NC)cc(F)c4F)c3nc2N[C@H]2CCOC2)cn1` [Example 53, (S)-3-(6-(1-Ethy1-1H-pyrazol-4-y1)-5-((tetrahydrofuran-3-yl)amino)pyrazolo[1,5-a]pyrimidin-3-y1)-4,5-difluoro-N-methylbenzamide], for which the IC50 is below 0.01 µM in experiment [1], below 0.01 µM on FGFR2, above 0.2 µM on FGFR4 and 0.01 to 0.03 µM against FGFR1.
With `CCS(=O)(=O)c1cc(F)c(F)c(-c2cnn3cc(-c4cnn(C)c4)c(O[C@H]4CCOC4)nc23)c1` [Example 46, (S)-3-(5-(Ethylsulfonyl)-2,3-difluorophenyl)-6-(1-methyl-1H-pyrazol-4-yl)-5-((tetrahydrofuran-3-yl)oxy)pyrazolo[1,5-a]pyrimidine], the concentration for half-maximal inhibition (IC50) was below 0.01 µM at FGFR2 (pre-incubated for 4 hours), at least 0.2 µM at FGFR4 (pre-incubated for 4 hours) and 0.01 to 0.03 µM at FGFR1.
As for `CNC(=O)c1cc(C)c(F)c(-c2cnn3cc(-c4cnn(C5CN(C)C5)c4)c(N[C@H]4CCOC4)nc23)c1` [Example 35, (S)-4-Fluoro-N,3-dimethyl-5-(6-(1-(1-methylazetidin-3-yl)-1H-pyrazol-4-yl)-5-((tetrahydrofuran-3-yl)amino)pyrazolo[1,5-a]pyrimidin-3-yl)benzamide], the IC50 in experiment [1] was below 0.01 µM; against FGFR2 (pre-incubated for 4 hours), below 0.01 µM; on FGFR4 (pre-incubated for 4 hours), at least 0.2 µM; on FGFR1 it was 0.01 to 0.03 µM.
Turning to `CNC(=O)c1cncc(-c2cnn3cc(-c4ccn(C)n4)c(N[C@H]4CCOC4)nc23)c1` [Example 59, (S)—N-Methyl-5-(6-(1-methyl-1H-pyrazol-3-yl)-5-((tetrahydrofuran-3-yl)amino)pyrazolo[1,5-a]pyrimidin-3-yl)nicotinamide], the IC50 in experiment [1] is below 0.01 µM; at FGFR2 (pre-incubated for 4 hours), below 0.01 µM; against FGFR4 (pre-incubated for 4 hours), 0.01 to 0.03 µM; against FGFR1 it was below 0.01 µM.
As for `[2H]C([2H])([2H])NC(=O)c1cc(-c2cnn3cc(-c4ccc(CN5C[C@H]6C[C@@H]5CO6)nc4)c(O[C@H]4CCOC4)nc23)c(F)c(C(F)F)c1` [Example 66, 3-(6-(6-(((1R,4R)-2-Oxa-5-azabicyclo[2.2.1]heptan-5-yl)methyl)pyridin-3-yl)-5-(((S)-tetrahydrofuran-3-yl)oxy)pyrazolo[1,5-a]pyrimidin-3-yl)-5-(difluoromethyl)-4-fluoro-N-(methyl-d3)benzamide], the IC50 is below 0.01 µM in experiment [1], below 0.01 µM on FGFR2 (pre-incubated for 4 hours), 0.03 to 0.2 µM against FGFR4 (pre-incubated for 4 hours) and 0.03 to 0.2 µM on FGFR1.
For `CNC(=O)c1cc(C)c(F)c(-c2cnn3cc(-c4cnn(CC(C)(C)O)c4)c(N[C@H]4CCOC4)nc23)c1` [Example 40, (S)-4-Fluoro-3-(6-(1-(2-hydroxy-2-methylpropy1)-1H-pyrazol-4-y1)-5-((tetrahydrofuran-3-yl)amino)pyrazolo[1,5-a]pyrimidin-3-y1)-N,5-dimethylbenzamide], the IC50 was below 0.01 µM in experiment [1], below 0.01 µM against FGFR2, 0.03 to 0.2 µM on FGFR4 and 0.01 to 0.03 µM against FGFR1.
As for `Cn1cc(-c2cn3ncc(-c4cccc(-c5cc[nH]n5)c4)c3nc2O[C@H]2CCOC2)cn1` [Example 51, (S)-3-(3-(1H-Pyrazol-3-yl)phenyl)-6-(1-methyl-1H-pyrazol-4-yl)-5-((tetrahydrofuran-3-yl)oxy)pyrazolo[1,5-a]pyrimidine], the half-inhibitory concentration (IC50) in experiment [1] is below 0.01 µM; against FGFR2 (pre-incubated for 4 hours), below 0.01 µM; at FGFR4 (pre-incubated for 4 hours), at least 0.2 µM; against FGFR1 it was 0.01 to 0.03 µM.
For `CNC(=O)c1cc(C)c(F)c(-c2cnn3cc(-c4cnn(C)c4)c(OC4CCOC4)nc23)c1` (racemic) [Example 4, 4-Fluoro-N,3-dimethyl-5-(6-(1-methyl-1H-pyrazol-4-yl)-5-((tetrahydrofuran-3-yl)oxy)pyrazolo[1,5-a]pyrimidin-3-yl)benzamide], the IC50 was below 0.01 µM in experiment [1], below 0.01 µM at FGFR2 (pre-incubated for 4 hours), 0.03 to 0.2 µM at FGFR4 (pre-incubated for 4 hours) and 0.03 to 0.2 µM against FGFR1.
Turning to `CNC(=O)c1cc(F)c(F)c(-c2cnn3cc(-c4cnn(C5CCN(C)CC5)c4)c(O[C@H]4CCOC4)nc23)c1` [Example 11, (S)-3,4-Difluoro-N-methyl-5-(6-(1-(1-methylpiperidin-4-yl)-1H-pyrazol-4-yl)-5-((tetrahydrofuran-3-yl)oxy)pyrazolo[1,5-a]pyrimidin-3-yl)benzamide], the IC50 (in experiment [1]; at FGFR2 (pre-incubated for 4 hours); against FGFR1) was below 0.01 µM in each case.
